Data: ChEMBL document CHEMBL3714762, “Agents and methods for treating ischemic and other diseases” (2012)
≈ marks a conversion by molar mass, not a printed value.

Tests used:
[1] = Antiproliferative activity against human WERI cells assessed as inhibition of cell proliferation by measuring normalized ratio of propidium iodide uptake at 5 uM by propidium iodide uptake based fluoroskan microplate reader analysis; format: functional
[2] = Antiproliferative activity against human WERI cells assessed as inhibition of cell proliferation by measuring normalized ratio of propidium iodide uptake at 10 uM by propidium iodide uptake based fluoroskan microplate reader analysis; format: functional
[3] = Antiproliferative activity against human WERI cells assessed as inhibition of cell proliferation by propidium iodide uptake based fluoroskan microplate reader analysis; format: functional
[4] = Stability in rat microsomes assessed half life; format: ADME, Microsome
HeLa = assay: Antiproliferative activity against human HeLa cells assessed as inhibition of cell proliferation at 10 uM incubated for 72 hrs by Cell-titer-Glo cell viability assay; format: functional
MCF7 = assay: Antiproliferative activity against human MCF7 cells assessed as inhibition of cell proliferation at 10 uM incubated for 72 hrs by Cell-titer-Glo cell viability assay; format: functional; conditions: MCF7, 72 h
[5] = Antiproliferative activity against human MCF10A cells assessed as inhibition of cell proliferation at 10 uM incubated for 72 hrs by Cell-titer-Glo cell viability assay; format: cell-based, MCF-10A
[6] = Antiproliferative activity against mouse B16F10 cells assessed as inhibition of cell proliferation at 10 uM incubated for 72 hrs by Cell-titer-Glo cell viability assay; format: functional; conditions: B16-F10, 72 h
Y79 = assay: Antiproliferative activity against human Y79 cells assessed as inhibition of cell proliferation at 10 uM incubated for 72 hrs by Cell-titer-Glo cell viability assay; format: functional; conditions: Y79, 72 h
[7] = Antiproliferative activity against human DMS53 cells assessed as inhibition of cell proliferation at 10 uM incubated for 72 hrs by Cell-titer-Glo cell viability assay; format: functional; conditions: DMS-53, 72 h
[8] = Antiproliferative activity against human WI38 cells assessed as inhibition of cell proliferation at 10 uM incubated for 72 hrs by Cell-titer-Glo cell viability assay; format: cell-based, WI-38
[9] = Solubility in aqueous solution; format: physicochemical
[10] = Antiproliferative activity against human WERI cells assessed as inhibition of cell proliferation at 10 uM by propidium iodide uptake based fluoroskan microplate reader analysis; format: functional
[11] = Antiproliferative activity against human WERI cells assessed as inhibition of cell proliferation at 5 uM by propidium iodide uptake based fluoroskan microplate reader analysis; format: functional

| SMILES | Ratio [1] | Ratio [2] | IC50 [3] [nM] | other results |
| --- | --- | --- | --- | --- |
| COc1ccc2c(c1)CCNC2c1sc2ccccc2c1Cl (stereo not given) | 0.016 | 0.003 | 1000 |  |
| Cc1c(Cc2c(F)cccc2Cl)c(=O)oc2cc(O)cc(O)c12 | 0.721 | 0.102 |  | half-life [4]: 5 min |
| COc1cc2c(cc1OC)C(c1sc3cccc(F)c3c1Cl)NCC2 (stereo not given) | 0.009 | 0 | 490 |  |
| COc1cc2c(cc1OC)C(c1sc3cccc(C)c3c1Cl)=NCC2 | 0.042 | 0.028 | 340 | inhibition at 10 µM (HeLa): > 40%; inhibition at 10 µM (MCF7): > 40%; inhibition at 72 h, 10 µM [5]: > 40%; inhibition at 10 µM [6]: > 40%; inhibition at 10 µM (Y79): > 40%; inhibition at 10 µM [7]: > 40%; inhibition at 72 h, 10 µM [8]: > 40%; solubility [9]: 100 µM (≈ 37.2 µg/mL) |
| COc1cc2c(cc1OC)C(c1sc3cccc(C)c3c1Cl)NCC2 (stereo not given) |  |  |  | solubility [9]: 100 µM (≈ 37.4 µg/mL) |
| Cc1ccc2c(c1)CCCN2C(=O)c1sc2ccc(F)cc2c1Cl | 0.321 | 0.064 | 4520 |  |
| COc1cc(OC)c2c(C)c(Cc3cccc(Cl)c3)c(=O)oc2c1 | 0.088 | 0.19 | 770 |  |
| Cc1c(Cc2cccc(Cl)c2)c(=O)oc2cc(O)ccc12 | 0.41 | 0.041 | 5590 |  |
| CN(Cc1ccccc1N1CCCC1)C(=O)c1sc2ccccc2c1Cl | 0.234 | 0.043 | 3440 |  |
| COc1cc2c(cc1OC)CN(C(=O)c1sc3ccccc3c1Cl)CC2 | 0.042 | 0.024 | 620 |  |
| O=C(c1sc2ccccc2c1Cl)N1CCCc2ccccc21 | 0.545 | 0.216 | 9800 |  |
| Clc1cccc2c1CCN=C2c1sc2ccccc2c1Cl | 0.065 | 0.1 | 2260 |  |
| Cc1ccc2c(c1)CCN=C2c1sc2ccccc2c1Cl | 0.011 | 0.003 | 1830 | inhibition at 10 µM (HeLa): > 40%; inhibition at 72 h, 10 µM [5]: > 40%; inhibition at 10 µM [6]: > 40%; inhibition at 10 µM (Y79): > 40% |
| COc1ccc2c(c1)CCCN2C(=O)c1sc2ccccc2c1Cl | 0.695 | 0.276 | 5660 |  |
| O=C(c1sc2ccccc2c1Cl)N1CCCc2cc(Cl)ccc21 | 0.267 | 0.049 | 3690 |  |
| Fc1ccc2c(c1)CCCN2Cc1sc2ccccc2c1Cl | 0.286 | 0.098 | 4090 |  |
| Cc1ccc(N(C)C(=O)c2sc3ccccc3c2Cl)c(C)c1 | 0.53 | 0.33 | 4570 |  |
| COc1cc(OC)c2c(C)c(Cc3ccccc3)c(=O)[nH]c2c1 |  |  |  | half-life [4]: > 30 min |
| COc1ccc2c(Cl)c(C(=O)N3CCCc4cc(C)ccc43)sc2c1 | 0.294 | 0.11 | 4030 | inhibition at 10 µM (HeLa): > 40%; inhibition at 10 µM (MCF7): > 40%; inhibition at 72 h, 10 µM [5]: > 40%; inhibition at 10 µM [6]: > 40%; inhibition at 10 µM (Y79): > 40%; inhibition at 10 µM [7]: > 40%; inhibition at 72 h, 10 µM [8]: > 40% |
| COc1ccc2c(c1)C(c1sc3cccc(C)c3c1Cl)=NCC2 | 0.019 | 0.047 | 1310 | inhibition at 10 µM (HeLa): > 40%; inhibition at 10 µM (MCF7): > 40%; inhibition at 72 h, 10 µM [5]: > 40%; inhibition at 10 µM (Y79): > 40%; inhibition at 10 µM [7]: > 40%; inhibition at 72 h, 10 µM [8]: > 40% |

| SMILES | Ratio [1] | Ratio [2] | IC50 [3] [nM] | other results |
| --- | --- | --- | --- | --- |
| COc1ccc(C)c(N(Cc2ccncc2)C(=O)c2sc3ccccc3c2Cl)c1 | 0.573 | 0.228 | 5730 | inhibition at 10 µM (HeLa): > 40% |
| COc1cc2c(cc1OC)C(c1sc3cccc(OC)c3c1Cl)NCC2 (stereo not given) | 0.008 | 0.012 | 320 |  |
| COc1cc2c(cc1OC)C(c1sc3ccccc3c1Cl)N(C)CC2 (stereo not given) | 0.042 | 0 | 1770 |  |
| Cc1ccc2c(c1)CCCN2C(=O)c1sc2cccc(C)c2c1Cl | 0.235 | 0.4 | 2020 |  |
| COc1cc2c(cc1OC)C(c1sc3ccccc3c1Cl)NCC2 (stereo not given) | 0.019 | 0 | 80 |  |
| O=C(NCc1ccccc1N1CCCC1)c1sc2ccccc2c1Cl | 0.195 | 0.375 | 1250 | inhibition at 10 µM (HeLa): > 40%; inhibition at 10 µM (MCF7): > 40%; inhibition at 72 h, 10 µM [5]: > 40%; inhibition at 10 µM [6]: > 40%; inhibition at 10 µM (Y79): > 40%; inhibition at 10 µM [7]: > 40% |
| CCCc1c(Cc2cccc(Cl)c2)c(=O)[nH]c2cc(OC)cc(OC)c12 | 0.072 | 0.037 | 960 |  |
| COc1ccc2c(c1)CCN(C)C2c1sc2ccccc2c1Cl (stereo not given) | 0.344 | 0.027 | 4340 |  |
| Cc1ccc(S(=O)(=O)Nc2sc3ccccc3c2Cl)cc1 | 0.297 | 0.121 | 3590 |  |
| Cc1ccc(N(Cc2cccc(C)n2)C(=O)c2sc3ccccc3c2Cl)c(C)c1 | 0 | 0.1 | 840 | inhibition at 10 µM (HeLa): > 40%; inhibition at 10 µM [6]: > 40%; inhibition at 10 µM (Y79): > 40% |
| COc1cc2c(cc1OC)C(c1sc3ccccc3c1Cl)=NCC2 | 0.011 | 0 | 50 | solubility [9]: 100 µM (≈ 35.8 µg/mL) |
| Cc1c(Cc2ccc(Cl)c(Cl)c2)c(=O)oc2cc(O)c(F)cc12 | 0.314 | 0.002 | 4030 |  |
| Cc1ccc2c(c1)CCCN2C(=O)c1[nH]c2ccccc2c1Cl | 0.77 | 0.76 |  | inhibition at 10 µM [10]: 33%; inhibition at 5 µM [11]: 9% |
| CC1c2ccsc2CCN1C(=O)c1sc2ccccc2c1Cl (stereo not given) | 0 | 0.056 | 1550 |  |
| COc1ccc2c(c1)C(c1sc3ccccc3c1Cl)=NCC2 | 0.36 | 0.07 | 3210 |  |
| COc1ccc2sc(C(=O)N3CCCc4cc(C)ccc43)c(Cl)c2c1 | 0.116 | 0.051 | 2830 | inhibition at 10 µM (HeLa): > 40%; inhibition at 10 µM (MCF7): > 40%; inhibition at 72 h, 10 µM [5]: > 40%; inhibition at 10 µM [6]: > 40%; inhibition at 10 µM (Y79): > 40% |
| Cc1ccc2c(c1)CCCN2C(=O)c1sc2cccc(F)c2c1Cl | 0.273 | 0.097 | 3290 |  |
| COc1ccc(C)c(N(Cc2cccnc2)C(=O)c2sc3ccccc3c2Cl)c1 | 0.08 | 0.1 | 2370 | inhibition at 10 µM (HeLa): > 40% |
| COc1ccc2c(Cl)c(C3NCCc4cc(OC)c(OC)cc43)sc2c1 (stereo not given) |  |  |  | half-life [4]: > 30 min; solubility [9]: 100 µM (≈ 39 µg/mL) |
| COc1cccc2c1CCN=C2c1sc2cccc(C)c2c1Cl | 0.042 | 0.13 | 360 | inhibition at 10 µM (HeLa): > 40%; inhibition at 10 µM (MCF7): > 40%; inhibition at 72 h, 10 µM [5]: > 40%; inhibition at 10 µM [6]: > 40%; inhibition at 10 µM (Y79): > 40%; inhibition at 10 µM [7]: > 40%; inhibition at 72 h, 10 µM [8]: > 40% |
